Read-outs that look alike come from different tables or passages of the source.
Tested on: p21 induction in HCT 116 cells
Assay: p21 induction in cells (In-Cell Western, p21/GAPDH ratio)
Type: cell-based
Conditions: 24 h compound incubation, read-out: p21_EC50
Description: The colon carcinoma cell line HCT 116 was obtained from ATCC and cultured in growth medium consisting of Mccoy's 5A Medium (Gibco 16600108) supplemented with 10% FBS (Transgene FS201-02) and 100 units/mL penicillin-streptomycin (Gibco 15140122) and maintained at 37° C. under 5% CO2. On the day of seeding, 2,000 cells in 30 μL of culture media were plated per well to Poly-D-Lysine 384 Well Black Clear Plates (Biocoat 356663) and incubated overnight at 37° C. under 5% CO2. The following day, compounds were serially diluted in DMSO for a total of 11 test concentrations. The typical starting concentration of compounds was 10 μM with 2-fold dilutions. Next, 150 nL of diluted compound was added in duplicate to the assay plate, using an Echo 655 (Labcyte). The plate was centrifuged at 500 RPM for 1 min and then incubated at 37° C. under 5% CO2 for 24 h. After 24 h, medium was removed, and cells were fixed by adding 40 μL of 4% paraformaldehyde solution to each well and incubated for 20 min at room temperature. The plate was then washed 4 times with 100 μL per well of wash buffer (PBS with 0.1% Tween-20) using a microplate washer. Next, 30 μL of ice-cold methanol was added to each well and the plate was incubated at −20° C. for 10 min. The plate was washed 4 times with 100 μL per well of wash buffer by a microplate washer, then 30 μL per well of blocking buffer ((Intercept PBS blocking buffer (LI-COR 927-70001) with 0.05% Tween-20)) was added and the plate was incubated at room temperature with shaking for 2 h. Next, to each test well, 20 μL of primary antibody solution (p21 Wafl/CIP (12D1) RabbitmAb (Cell Signaling Technologies 2947) diluted 1:1000 and GAPDH (D4C6R) Mouse mAb (Cell Signaling Technologies 97166) diluted 1:2000 in blocking buffer) was added and the plate was placed at 4° C., overnight. The following day, the plate was washed 5 times with 100 μL per well of wash buffer using a microplate washer for 5 min. 20 μL per well of secondary antibody (IRDye 680CW Goat anti-Mouse IgG (H+L) (LI-COR 926-68070) diluted 1:2000 in Blocking Buffer and IRDye 800CW Goat anti-Rabbit IgG (H+L) (LI-COR 926-32211) diluted 1:2000 in Blocking Buffer) was then added and the plate was stored for 2 h in the dark at room temperature with shaking. The plate was then washed 4 times with 100 μL per well of wash buffer again using a microplate washer. Finally, the p21 signal and the GAPDH signal were quantified using a LI-COR Odyssey CLx Imager machine reading at 800 nm and 700 nm, respectively. Each plate contained DMSO control (low control) and an internal reference WRN inhibitor (high control) respectively. For quantitation, the 800 nm/700 nm ratio was calculated for each well to give fold p21 induction and then percent activation for each compound well was calculated as follows (100×(ratio cpd well-ratio low control)/(ratio high control−ratio low control). EC50 values for each compound was generated after non-linear regression curve fitting using commercially available software.

SMILES	EC50 (Homo sapiens)	EC50
CCc1c(N2CCN(C(=O)c3ncnc(C)c3O)[C@H]3CC[C@@H]32)c(=O)c2nn(-c3ccnc(C(F)F)c3)nc2n1CC(=O)NC12CC(C3CC3)(C1)C2 [Compound I-182, N-{3-cyclopropylbicyclo[1.1.1]pentan-1-yl}-2-{2-[2-(difluoromethyl)pyridin-4-yl]-5-ethyl-6-[(1S,6S)-5-(5-hydroxy-6-methylpyrimidine-4-carbonyl)-2,5-diazabicyclo[4.2.0]octan-2-yl]-7-oxo-2H,4H,7H-[1,2,3]triazolo[4,5-b]pyridin-4-yl}acetamide]	≤ 500 nM	–
CCc1c(N2CCN(C(=O)c3ncnc(C)c3O)CC2)c(=O)c2nn(C3=CCOCC3)nc2n1CC(=O)NC12CC(C(C)C)(C1)C2 [Compound I-38, 2-[2-(3,6-dihydro-2H-pyran-4-yl)-5-ethyl-6-[4-(5-hydroxy-6-methylpyrimidine-4-carbonyl)piperazin-1-yl]-7-oxo-2H,4H,7H-[1,2,3]triazolo[4,5-b]pyridin-4-yl]-N-[3-(propan-2-yl)bicyclo[1.1.1]pentan-1-yl]acetamide]	500 to 2000 nM	–
CCc1c(N2CCN(C(=O)c3ncnc(C)c3O)[C@H]3CC[C@@H]32)c(=O)c2nn(C3=CCOC(C)C3)nc2n1CC(=O)NC12CC(C3CC3)(C1)C2 (stereo partly drawn) [Compound I-172, N-{3-cyclopropylbicyclo[1.1.1]pentan-1-yl}-2-{5-ethyl-6-[(1S,6S)-5-(5-hydroxy-6-methylpyrimidine-4-carbonyl)-2,5-diazabicyclo[4.2.0]octan-2-yl]-2-(2-methyl-3,6-dihydro-2H-pyran-4-yl)-7-oxo-2H,4H,7H-[1,2,3]triazolo[4,5-b]pyridin-4-yl}acetamide]	≤ 500 nM	–
CCc1c(N2CCN(C(=O)c3ncnc(C)c3O)[C@H]3CC[C@@H]32)c(=O)c2nn(-c3ccn(C4CC4)n3)nc2n1CC(=O)NC12CC(C(C)C)(C1)C2 [Compound I-60, 2-[2-(1-cyclopropyl-1H-pyrazol-3-yl)-5-ethyl-6-[(1S,6S)-5-(5-hydroxy-6-methylpyrimidine-4-carbonyl)-2,5-diazabicyclo[4.2.0]octan-2-yl]-7-oxo-2H,4H,7H-[1,2,3]triazolo[4,5-b]pyridin-4-yl]-N-[3-(propan-2-yl)bicyclo[1.1.1]pentan-1-yl]acetamide]	≤ 500 nM	–
CCc1c(N2CCN(C(=O)c3ncnc(C)c3O)[C@H]3CC[C@@H]32)c(=O)c2nn(C3=CCOCC3)nc2n1CC(=O)NC12CC(C(C)(C)C)(C1)C2 [Compound I-196, N-{3-tert-butylbicyclo[1.1.1]pentan-1-yl}-2-[2-(3,6-dihydro-2H-pyran-4-yl)-5-ethyl-6-[(1S,6S)-5-(5-hydroxy-6-methylpyrimidine-4-carbonyl)-2,5-diazabicyclo[4.2.0]octan-2-yl]-7-oxo-2H,4H,7H-[1,2,3]triazolo[4,5-b]pyridin-4-yl]acetamide]	≤ 500 nM	–
CCc1c(N2CCN(C(=O)c3ncnc(C)c3O)[C@H]3CCC[C@@H]32)c(=O)c2nn(-c3ccnc(OC)c3)nc2n1CC(=O)NC12CC(C3CC3)(C1)C2 [Compound I-33, 2-{6-[(4aS,7aS)-4-(5-hydroxy-6-methylpyrimidine-4-carbonyl)-octahydro-1H-cyclopenta[b]pyrazin-1-yl]-5-ethyl-2-(2-methoxypyridin-4-yl)-7-oxo-2H,4H,7H-[1,2,3]triazolo[4,5-b]pyridin-4-yl}-N-{3-cyclopropylbicyclo[1.1.1]pentan-1-yl}acetamide]	≤ 500 nM	–
CCc1c(N2CCN(C(=O)c3ncnc(C)c3O)[C@H]3CC[C@@H]32)c(=O)c2nn(-c3ccnc(OC)c3)cc2n1CC(=O)NC12CC(C3CC3)(C1)C2 [Compound I-188, N-{3-cyclopropylbicyclo[1.1.1]pentan-1-yl}-2-{5-ethyl-6-[(1S,6S)-5-(5-hydroxy-6-methylpyrimidine-4-carbonyl)-2,5-diazabicyclo[4.2.0]octan-2-yl]-2-(2-methoxypyridin-4-yl)-7-oxo-2H,4H,7H-pyrazolo[4,3-b]pyridin-4-yl}acetamide]	500 to 2000 nM	–
CCc1c(N2CCN(C(=O)c3c(F)cnc(OC)c3O)[C@H]3CC[C@@H]32)c(=O)c2nn(C3=CCOCC3)nc2n1CC(=O)NC12CC(C3CC3)(C1)C2 [Compound I-183, N-{3-cyclopropylbicyclo[1.1.1]pentan-1-yl}-2-[2-(3,6-dihydro-2H-pyran-4-yl)-5-ethyl-6-[(1S,6S)-5-(5-fluoro-3-hydroxy-2-methoxypyridine-4-carbonyl)-2,5-diazabicyclo[4.2.0]octan-2-yl]-7-oxo-2H,4H,7H-[1,2,3]triazolo[4,5-b]pyridin-4-yl]acetamide]	≤ 500 nM	–
CCc1c(N2CCN(C(=O)c3ncnc(C)c3O)[C@H]3CC[C@@H]32)c(=O)c2nn(-c3ccnc(OC)c3)nc2n1CC(=O)Nc1ccc(C(F)(F)F)cc1Cl [Compound I-55, N-[2-chloro-4-(trifluoromethyl)phenyl]-2-{5-ethyl-6-[(1S,6S)-5-(5-hydroxy-6-methylpyrimidine-4-carbonyl)-2,5-diazabicyclo[4.2.0]octan-2-yl]-2-(2-methoxypyridin-4-yl)-7-oxo-2H,4H,7H-[1,2,3]triazolo[4,5-b]pyridin-4-yl}acetamide]	≤ 500 nM	–
CCc1c(N2CCN(C(=O)c3ncnc(C)c3O)[C@H]3CC[C@@H]32)c(=O)c2nn(-c3ccnc(C(F)(F)F)c3)nc2n1CC(=O)NC12CC(C3CC3)(C1)C2 [Compound I-176, N-{3-cyclopropylbicyclo[1.1.1]pentan-1-yl}-2-{5-ethyl-6-[(1S,6S)-5-(5-hydroxy-6-methylpyrimidine-4-carbonyl)-2,5-diazabicyclo[4.2.0]octan-2-yl]-7-oxo-2-[2-(trifluoromethyl)pyridin-4-yl]-2H,4H,7H-[1,2,3]triazolo[4,5-b]pyridin-4-yl}acetamide]	≤ 500 nM	–
CCc1c(N2CCN(C(=O)c3ncnc(C)c3O)[C@H]3CC[C@@H]32)c(=O)c2nn([C@@H]3CC3(F)F)nc2n1CC(=O)Nc1ccc(C(F)(F)F)cc1Cl (single isomer, unassigned) [Compound I-216]	–	≤ 500 nM
CCc1c(N2CCN(C(=O)c3c(O)c(F)cc4ncoc34)[C@H]3CC[C@@H]32)c(=O)c2nn(C3=CCOCC3)nc2n1CC(=O)NC12CC(C3CC3)(C1)C2 [Compound I-194, N-{3-cyclopropylbicyclo[1.1.1]pentan-1-yl}-2-[2-(3,6-dihydro-2H-pyran-4-yl)-5-ethyl-6-[(1S,6S)-5-(5-fluoro-6-hydroxy-1,3-benzoxazole-7-carbonyl)-2,5-diazabicyclo[4.2.0]octan-2-yl]-7-oxo-2H,4H,7H-[1,2,3]triazolo[4,5-b]pyridin-4-yl]acetamide]	≤ 500 nM	–
CCc1c(N2CCN(C(=O)c3ncnc(C)c3O)[C@H]3CC[C@@H]32)c(=O)c2nn(C3=CCOCC3)nc2n1CC(=O)NC1CC2(CCC2)C1 [Compound I-197, 2-[2-(3,6-dihydro-2H-pyran-4-yl)-5-ethyl-6-[(1S,6S)-5-(5-hydroxy-6-methylpyrimidine-4-carbonyl)-2,5-diazabicyclo[4.2.0]octan-2-yl]-7-oxo-2H,4H,7H-[1,2,3]triazolo[4,5-b]pyridin-4-yl]-N-{spiro[3.3]heptan-2-yl}acetamide]	≤ 500 nM	–
CCc1c(N2CCN(C(=O)c3ncnc(C)c3O)[C@H]3CCC[C@@H]32)c(=O)c2nn(C3=CCOCC3)nc2n1CC(=O)NC12CC(C3CC3)(C1)C2 [Compound I-39, 2-{6-[(4aS,7aS)-4-(5-hydroxy-6-methylpyrimidine-4-carbonyl)-octahydro-1H-cyclopenta[b]pyrazin-1-yl]-2-(3,6-dihydro-2H-pyran-4-yl)-5-ethyl-7-oxo-2H,4H,7H-[1,2,3]triazolo[4,5-b]pyridin-4-yl}-N-{3-cyclopropylbicyclo[1.1.1]pentan-1-yl}acetamide]	≤ 500 nM	–
CCc1c(N2CCN(C(=O)c3ncnc(C)c3O)[C@H]3CC[C@@H]32)c(=O)c2nn(-c3ccnc(OC)c3)nc2n1CC(=O)NC12CC(C3CCC3)(C1)C2 [Compound I-62, N-{3-cyclobutylbicyclo[1.1.1]pentan-1-yl}-2-{5-ethyl-6-[(1S,6S)-5-(5-hydroxy-6-methylpyrimidine-4-carbonyl)-2,5-diazabicyclo[4.2.0]octan-2-yl]-2-(2-methoxypyridin-4-yl)-7-oxo-2H,4H,7H-[1,2,3]triazolo[4,5-b]pyridin-4-yl}acetamide]	–	≤ 500 nM
